# Patent US20050208496A1, “Methods of testing for bronchial asthma or chronic obstructive pulmonary disease” (Genox Research, Inc., priority 2002, published 2005)
# Test system: respiratory epithelial cells
substance,measurement,setting,value
"IL-13: human IL-13 (Peprotech, Inc.) added to the medium at 50 ng/mL to stimulate respiratory epithelial cells",KCNMA1 (47575_g_at) expression change,"lot 2, Day 3, AI",−3.5
same,KCNMA1 (53796_at) expression change,"lot 2, Day 3, AI",−4.8
same,KIAA0878 (48793_at) expression change,"lot 2, Day 3, AI",−2.1
same,KLF7 34216_at expression change,"lot 2, Day 3, AI",−2.6
same,KLF7 (42769_at) expression change,"lot 2, Day 3, AI",−5.7
same,KRT15 37582_at expression change,"lot 2, Day 3, AI",−2.7
same,LOC51297 (49616_at) expression change,"lot 2, Day 3, AI",−13.4
same,LOC51297 (55440_at) expression change,"lot 2, Day 3, AI",−10.8
same,LOC51297 (55442_g_at) expression change,"lot 2, Day 3, AI",−14.4
same,LOC129642 (42065_at) expression change,"lot 2, Day 3, AI",−2.8
same,LOC129642 (58288_at) expression change,"lot 2, Day 3, AI",−3
same,MGC12536 46924_at expression change,"lot 2, Day 3, AI",−4.2
same,MGC13102 (54791_at) expression change,"lot 2, Day 3, AI",−2.1
same,MGC14128 55924_at expression change,"lot 2, Day 3, AI",−3.3
same,MGC14128 (51669_r_at) expression change,"lot 2, Day 3, AI",−3
same,MGC14597 (46030_at) expression change,"lot 2, Day 3, AI",−8.5
same,N52554 47432_at expression change,"lot 2, Day 3, AI",−2.3
same,N71183 52473_at expression change,"lot 2, Day 3, AI",−2.2
same,PR01489 57777_at expression change,"lot 2, Day 3, AI",−3.3
same,PSCA (63958_at) expression change,"lot 2, Day 3, AI",−5.5
same,RAC2 32737_at expression change,"lot 2, Day 3, AI",−17.4
same,RGC32 (57044_s_at) expression change,"lot 2, Day 3, AI",−2.2
same,SCNN1B 39682_at expression change,"lot 2, Day 3, AI",−12.3
same,SCYB14 (65823_at) expression change,"lot 2, Day 3, AI",−2.1
same,SERPINA3 (75248_at) expression change,"lot 2, Day 3, AI",−35.8
same,SLC11A3 (45826_at) expression change,"lot 2, Day 3, AI",−2.5
same,SLC34A2 (48048_at) expression change,"lot 2, Day 3, AI",−4.3
same,SPON2 52576_s_at expression change,"lot 2, Day 3, AI",−3.1
same,STEAP 40297_at expression change,"lot 2, Day 3, AI",−2.6
same,TCF8 33439_at expression change,"lot 2, Day 3, AI",−2.7
same,TGFBI (68339_at) expression change,"lot 2, Day 3, AI",−2.8
same,TNFAIP2 (74633_at) expression change,"lot 2, Day 3, AI",−2.2
same,TNRC3 41246_at expression change,"lot 2, Day 3, AI",−2
same,TPM1 36790_at expression change,"lot 2, Day 3, AI",−5.4
same,TPM1 36791_g_at expression change,"lot 2, Day 3, AI",−3.5
same,TPM1 36792_at expression change,"lot 2, Day 3, AI",−5
same,UCP2 37591_at expression change,"lot 2, Day 3, AI",−2.3
same,UGB 39220_at expression change,"lot 2, Day 3, AI",−17.8
same,VEGFC 1934_s_at expression change,"lot 2, Day 3, AI",−2.5
same,VIM 34091_s_at expression change,"lot 2, Day 3, AI",−3.1
same,W72331 49486 at expression change,"lot 2, Day 3, AI",−7.8
same,AA149682 (51925_at) expression fold change,"lot 2, Day 3, AI method",2.2 fold
same,AA167714 (54897_at) expression fold change,"lot 2, Day 3, AI method",2.9 fold
same,AA420479 (52539_at) expression fold change,"lot 2, Day 3, AI method",2.2 fold
same,AA541787 (52622_at) expression fold change,"lot 2, Day 3, AI method",2.2 fold
same,AA582926 (52307_at) expression fold change,"lot 2, Day 3, AI method",2.2 fold
same,AA604375 (44127_at) expression fold change,"lot 2, Day 3, AI method",2.1 fold
same,"ADAM8 (40712_at) expression, fold change upon IL-13 stimulation","lot 2, Day 3, AI method",2.7 fold
same,"ADAM28 (35479_at) expression, fold change upon IL-13 stimulation","lot 2, Day 3, AI method",3.5 fold
same,AI310524 (47087_at) expression fold change,"lot 2, Day 3, AI method",2 fold
same,AI565105 (54886_at) expression fold change,"lot 2, Day 3, AI method",2.2 fold
same,AI659927 (54033_at) expression fold change,"lot 2, Day 3, AI method",4.6 fold
same,AI718385 (53061_at) expression fold change,"lot 2, Day 3, AI method",2.2 fold
same,AI809925 (53010_at) expression fold change,"lot 2, Day 3, AI method",2.2 fold
same,AI989346 (52327_s_at) expression fold change,"lot 2, Day 3, AI method",2.2 fold
same,"AKAP2 (35985_at) expression, fold change upon IL-13 stimulation","lot 2, Day 3, AI method",2.5 fold
same,AKAP2 (48035_at) expression fold change,"lot 2, Day 3, AI method",3 fold
same,"ALOX15 (34636_at) expression, fold change upon IL-13 stimulation","lot 2, Day 3, AI method",112.2 fold
same,ARL7 (57151_at) expression fold change,"lot 2, Day 3, AI method",6.1 fold
same,AW019985 (48826_s_at) expression fold change,"lot 2, Day 3, AI method",9.8 fold
same,BAL (52167_at) expression fold change,"lot 2, Day 3, AI method",2.7 fold
same,BRCA1 (626_s_at) expression fold change,"lot 2, Day 3, AI method",19.3 fold
same,"BST2 (39061_at) expression, fold change upon IL-13 stimulation","lot 2, Day 3, AI method",5.8 fold
same,C21orf11 (58957_at) expression fold change,"lot 2, Day 3, AI method",7.1 fold
same,CCND3 (1794_at) expression fold change upon IL-13 stimulation,"lot 2, Day 3, AI method",2.3 fold
same,CCND3 (1795_g_at) expression fold change upon IL-13 stimulation,"lot 2, Day 3, AI method",2.4 fold
same,CD47 (37890_at) expression fold change,"lot 2, Day 3, AI method",2.4 fold
same,CDH6 (1620_at) expression fold change upon IL-13 stimulation,"lot 2, Day 3, AI method",5.6 fold
same,CDH6 (57421_at) expression fold change,"lot 2, Day 3, AI method",2.9 fold
same,CDH26 (46916_at) expression fold change,"lot 2, Day 3, AI method",10.5 fold
same,"CH25H (32363_at) expression, fold change upon IL-13 stimulation","lot 2, Day 3, AI method",14.9 fold
same,CLDN1 (46260_at) expression fold change,"lot 2, Day 3, AI method",2.4 fold
same,"CLDN4 (35276_at) expression, fold change upon IL-13 stimulation","lot 2, Day 3, AI method",2.2 fold
same,"CTSC (133_at) expression, fold change upon IL-13 stimulation","lot 2, Day 3, AI method",3.9 fold
same,CXCL16 (44095_at) expression fold change,"lot 2, Day 3, AI method",2.3 fold
same,"DBCCR1 (40292_at) expression, fold change upon IL-13 stimulation","lot 2, Day 3, AI method",7.9 fold
same,"DD96 (31610_at) expression, fold change upon IL-13 stimulation","lot 2, Day 3, AI method",5.3 fold
same,"DKFZP564O0823 (41402_at) expression, fold change upon IL-13 stimulation","lot 2, Day 3, AI method",5.4 fold
same,DKFZP566J091 (57197_at) expression fold change,"lot 2, Day 3, AI method",45.3 fold
same,"DKFZp564N1116 (37784_at) expression, fold change upon IL-13 stimulation","lot 2, Day 3, AI method",5 fold
same,DNAJA1 (276_at) expression fold change upon IL-13 stimulation,"lot 2, Day 3, AI method",2.2 fold
same,DPP4 (34823_at) expression fold change upon IL-13 stimulation,"lot 2, Day 3, AI method",7.6 fold
same,DPYD (38220_at) expression fold change upon IL-13 stimulation,"lot 2, Day 3, AI method",3.9 fold
same,EMILIN-2 (51628_at) expression fold change,"lot 2, Day 3, AI method",2.9 fold
same,"FABP4 (38430_at) expression, fold change upon IL-13 stimulation","lot 2, Day 3, AI method",2.5 fold
same,FBP1 (36495_at) expression fold change upon IL-13 stimulation,"lot 2, Day 3, AI method",4.4 fold
same,FETUB (32620_at) expression fold change,"lot 2, Day 3, AI method",37.6 fold
same,FETUB (33101_g_at) expression fold change,"lot 2, Day 3, AI method",24.7 fold
same,FLJ10261 (43366_at) expression fold change,"lot 2, Day 3, AI method",11.2 fold
same,FLJ10261 (43963_at) expression fold change,"lot 2, Day 3, AI method",14.4 fold
same,FLJ22693 (53777_at) expression fold change,"lot 2, Day 3, AI method",2.2 fold
same,FUT10 (908_at) expression fold change upon IL-13 stimulation,"lot 2, Day 3, AI method",8.9 fold
same,GADD45G (39154_at) expression fold change upon IL-13 stimulation,"lot 2, Day 3, AI method",5.3 fold
same,GBP5 (52615_at) expression fold change,"lot 2, Day 3, AI method",4.5 fold
same,"GS3686 (36927_at) expression, fold change upon IL-13 stimulation","lot 2, Day 3, AI method",6.4 fold
same,HAS3 (54604_at) expression fold change,"lot 2, Day 3, AI method",2 fold
same,HDAC9 (37483_at) expression fold change upon IL-13 stimulation,"lot 2, Day 3, AI method",3.7 fold
same,HS3ST1 (41556_s_at) expression fold change upon IL-13 stimulation,"lot 2, Day 3, AI method",5.8 fold
same,HSPA5 (47634_at) expression fold change,"lot 2, Day 3, AI method",3.7 fold
same,ICAMt (32640_at) expression fold change upon IL-13 stimulation,"lot 2, Day 3, AI method",2.8 fold
same,"IFI27 (425_at) expression, fold change upon IL-13 stimulation","lot 2, Day 3, AI method",2.5 fold
same,IFI27 (48864_at) expression fold change,"lot 2, Day 3, AI method",2.1 fold
same,"IFI35 (464_s_at) expression, fold change upon IL-13 stimulation","lot 2, Day 3, AI method",4.5 fold
same,"IFI44 (37641_at) expression, fold change upon IL-13 stimulation","lot 2, Day 3, AI method",3.8 fold
same,"IFIT1 (915_at) expression, fold change upon IL-13 stimulation","lot 2, Day 3, AI method",9 fold
same,"IFIT1 (32814_at) expression, fold change upon IL-13 stimulation","lot 2, Day 3, AI method",4 fold
